Measurements as given in patent US20260297080A1, “BICYCLIC COMPOUNDS AS CDK INHIBITORS” (BeOne Medicines I GmbH, priority 2022, published 2026).

Legend:
CDK1/Cyclin B1 = CDK1/Cyclin B1 (Homo sapiens, UniProt P06493); test: CDK1/Cyclin B1 Biochemical Assay (TR-FRET), 0.015 mM ATP; conditions: 0.15 μM Rb (Ser780)-biotin substrate, pH7.0, 60 min preincubation, 120 min reaction, room temperature
Method in brief: (§1)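 TR-FRET readout: 665/620 nm ratio from Eu-cryptate anti-pRb(Ser780) antibody plus streptavidin-XL665, converted to % inhibition and fitted (4-parameter logistic) for IC50. Reactions used 0.15 μM biotinylated Rb (Ser780) substrate, compound 0–10 μM, 60 min enzyme–compound preincubation, then 120 min reaction at room temperature.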

CDK2/Cyclin E1 = CDK2/Cyclin E1 (Homo sapiens, UniProt P24941); test: CDK2/Cyclin E1 Biochemical Assay (TR-FRET), 0.060 mM ATP; conditions: 0.15 μM Rb (Ser780)-biotin substrate, pH7.0, 60 min preincubation, 120 min reaction, room temperature
Method in brief: as §1

CDK1/Cyclin B1, sequence (P06493 whole entry): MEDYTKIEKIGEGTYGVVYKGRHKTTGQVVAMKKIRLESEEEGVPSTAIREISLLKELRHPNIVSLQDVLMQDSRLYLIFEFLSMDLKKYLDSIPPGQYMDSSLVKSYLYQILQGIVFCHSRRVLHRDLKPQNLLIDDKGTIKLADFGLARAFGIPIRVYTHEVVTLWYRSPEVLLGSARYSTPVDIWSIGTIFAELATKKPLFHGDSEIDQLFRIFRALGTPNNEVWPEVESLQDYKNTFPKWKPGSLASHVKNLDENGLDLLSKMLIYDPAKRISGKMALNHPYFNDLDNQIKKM
CDK1/Cyclin B1, sequence (P14635 whole entry partner): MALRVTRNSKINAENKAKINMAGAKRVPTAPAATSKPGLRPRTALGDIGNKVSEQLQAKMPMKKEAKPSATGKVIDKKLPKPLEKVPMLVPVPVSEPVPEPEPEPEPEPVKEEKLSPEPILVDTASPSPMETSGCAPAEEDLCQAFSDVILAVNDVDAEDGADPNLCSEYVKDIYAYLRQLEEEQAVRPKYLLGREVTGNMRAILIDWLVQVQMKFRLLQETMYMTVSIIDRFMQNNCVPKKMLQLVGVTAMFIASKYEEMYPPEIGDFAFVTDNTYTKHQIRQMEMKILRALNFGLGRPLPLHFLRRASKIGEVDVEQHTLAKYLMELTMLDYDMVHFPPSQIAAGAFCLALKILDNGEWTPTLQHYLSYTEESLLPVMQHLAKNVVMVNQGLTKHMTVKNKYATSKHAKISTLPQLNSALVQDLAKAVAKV

| IC50 (CDK1/Cyclin B1) [nM] | IC50 (CDK2/Cyclin E1) [nM] | SMILES |
| --- | --- | --- |
| 1410 | 13 | CC(C)NC(=O)O[C@H]1CC[C@@H](c2cc(Nc3cc4c(cc3F)NS(=O)(=O)C4)n[nH]2)C1 (single isomer, unassigned) [Example 292a, cis-3-(3-((6-fluoro-2,2-dioxido-1,3-dihydrobenzo[c]isothiazol-5-yl)amino)-1H-pyrazol-5-yl)cyclopentyl isopropylcarbamate] |
| 457 | 5.2 | CC(C)NC(=O)O[C@H]1CC[C@@H](c2cc(Nc3cc4c(cc3F)NS(=O)(=O)C4)n[nH]2)C1 (single isomer, unassigned) [Example 292b, cis-3-(3-((6-fluoro-2,2-dioxido-1,3-dihydrobenzo[c]isothiazol-5-yl)amino)-1H-pyrazol-5-yl)cyclopentyl isopropylcarbamate] |
| 800 | 15 | CC(C)NC(=O)O[C@H]1CC[C@@H](c2cc(Nc3cc4c(cc3F)N(CCO)S(=O)(=O)C4)n[nH]2)C1 (single isomer, unassigned) [Example 296a, cis-3-(3-((6-fluoro-1-(2-hydroxyethyl)-2,2-dioxido-1,3-dihydrobenzo[c]isothiazol-5-yl)amino)-1H-pyrazol-5-yl)cyclopentyl isopropylcarbamate] |
| 497 | 8.4 | CC(C)NC(=O)O[C@H]1CC[C@@H](c2cc(Nc3cc4c(cc3F)N(CCO)S(=O)(=O)C4)n[nH]2)C1 (single isomer, unassigned) [Example 296b, cis-3-(3-((6-fluoro-1-(2-hydroxyethyl)-2,2-dioxido-1,3-dihydrobenzo[c]isothiazol-5-yl)amino)-1H-pyrazol-5-yl)cyclopentyl isopropylcarbamate] |
| 95 | 2.9 | CC(C)NC(=O)O[C@H]1CC[C@@H](c2cc(Nc3ccc4c(c3)C(C)NS4(=O)=O)n[nH]2)C1 (single isomer, unassigned) [Example 321a, cis-3-(3-((3-methyl-1,1-dioxido-2,3-dihydrobenzo[d]isothiazol-5-yl)amino)-1H-pyrazol-5-yl)cyclopentyl isopropylcarbamate] |
| 15 | 0.6 | CC(C)NC(=O)O[C@H]1CC[C@@H](c2cc(Nc3ccc4c(c3)C(C)NS4(=O)=O)n[nH]2)C1 (single isomer, unassigned) [Example 321b, cis-3-(3-((3-methyl-1,1-dioxido-2,3-dihydrobenzo[d]isothiazol-5-yl)amino)-1H-pyrazol-5-yl)cyclopentyl isopropylcarbamate] |
| 26 | 1.3 | CC(C)NC(=O)O[C@H]1CC[C@@H](c2cc(Nc3ccc4c(c3)C(C)NS4(=O)=O)n[nH]2)C1 (single isomer, unassigned) [Example 321c, cis-3-(3-((3-methyl-1,1-dioxido-2,3-dihydrobenzo[d]isothiazol-5-yl)amino)-1H-pyrazol-5-yl)cyclopentyl isopropylcarbamate] |
| 5.4 | 0.6 | CC(C)NC(=O)O[C@H]1CC[C@@H](c2cc(Nc3ccc4c(c3)C(C)NS4(=O)=O)n[nH]2)C1 (single isomer, unassigned) [Example 321d, cis-3-(3-((3-methyl-1,1-dioxido-2,3-dihydrobenzo[d]isothiazol-5-yl)amino)-1H-pyrazol-5-yl)cyclopentyl isopropylcarbamate] |
| 17 | 1.1 | CC1NS(=O)(=O)c2ccc(Nc3cc([C@@H]4CC[C@H](OC(=O)NC5(C)CC5)C4)[nH]n3)cc21 (single isomer, unassigned) [Example 322a, cis-3-(3-((3-methyl-1,1-dioxido-2,3-dihydrobenzo[d]isothiazol-5-yl)amino)-1H-pyrazol-5-yl)cyclopentyl(1-methylcyclopropyl)carbamate] |

More lines, now with the values behind:

| SMILES | IC50 (CDK1/Cyclin B1) [nM] | IC50 (CDK2/Cyclin E1) [nM] |
| --- | --- | --- |
| CC(C)NC(=O)O[C@H]1CC[C@@H](c2cc(Nc3ccc4c(c3F)CS(=O)(=O)N4C3CC3)n[nH]2)C1 (single isomer, unassigned) [Example 275a, cis-3-(3-((1-cyclopropyl-4-fluoro-2,2-dioxido-1,3-dihydrobenzo[c]isothiazol-5-yl)amino)-1H-pyrazol-5-yl)cyclopentyl isopropylcarbamate] | 398 | 8.4 |
| CC(C)NC(=O)O[C@H]1CC[C@@H](c2cc(Nc3ccc4c(c3F)CS(=O)(=O)N4C3CC3)n[nH]2)C1 (single isomer, unassigned) [Example 275b, cis-3-(3-((1-cyclopropyl-4-fluoro-2,2-dioxido-1,3-dihydrobenzo[c]isothiazol-5-yl)amino)-1H-pyrazol-5-yl)cyclopentyl isopropylcarbamate] | 160 | 3.1 |
| [2H]C([2H])([2H])N1c2c(F)cc(Nc3cc([C@@H]4CC[C@H](OC(=O)NC(C)C)C4)[nH]n3)cc2CS1(=O)=O (single isomer, unassigned) [Example 289a, cis-3-(3-((7-fluoro-1-(methyl-d3)-2,2-dioxido-1,3-dihydrobenzo[c]isothiazol-5-yl)amino)-1H-pyrazol-5-yl)cyclopentyl isopropylcarbamate] | 196 | 10 |
| [2H]C([2H])([2H])N1c2c(F)cc(Nc3cc([C@@H]4CC[C@H](OC(=O)NC(C)C)C4)[nH]n3)cc2CS1(=O)=O (single isomer, unassigned) [Example 289b, cis-3-(3-((7-fluoro-1-(methyl-d3)-2,2-dioxido-1,3-dihydrobenzo[c]isothiazol-5-yl)amino)-1H-pyrazol-5-yl)cyclopentyl isopropylcarbamate] | 116 | 12 |
| [2H]C([2H])([2H])N1c2c(F)cc(Nc3cc([C@@H]4CC[C@H](OC(=O)NCCC)C4)[nH]n3)cc2CS1(=O)=O (single isomer, unassigned) [Example 290a, cis-3-(3-((7-fluoro-1-(methyl-d3)-2,2-dioxido-1,3-dihydrobenzo[c]isothiazol-5-yl)amino)-1H-pyrazol-5-yl)cyclopentyl propylcarbamate] | 356 | 16 |
| [2H]C([2H])([2H])N1c2c(F)cc(Nc3cc([C@@H]4CC[C@H](OC(=O)NCCC)C4)[nH]n3)cc2CS1(=O)=O (single isomer, unassigned) [Example 290b, cis-3-(3-((7-fluoro-1-(methyl-d3)-2,2-dioxido-1,3-dihydrobenzo[c]isothiazol-5-yl)amino)-1H-pyrazol-5-yl)cyclopentyl propylcarbamate] | 94 | 7.5 |
| [2H]C([2H])([2H])N1c2c(F)cc(Nc3cc([C@@H]4CC[C@H](OC(=O)NC5(C)CC5)C4)[nH]n3)cc2CS1(=O)=O (single isomer, unassigned) [Example 291a, cis-3-(3-((7-fluoro-1-(methyl-d3)-2,2-dioxido-1,3-dihydrobenzo[c]isothiazol-5-yl)amino)-1H-pyrazol-5-yl)cyclopentyl(1-methylcyclopropyl)carbamate] | 76 | 2 |
| [2H]C([2H])([2H])N1c2c(F)cc(Nc3cc([C@@H]4CC[C@H](OC(=O)NC5(C)CC5)C4)[nH]n3)cc2CS1(=O)=O (single isomer, unassigned) [Example 291b, cis-3-(3-((7-fluoro-1-(methyl-d3)-2,2-dioxido-1,3-dihydrobenzo[c]isothiazol-5-yl)amino)-1H-pyrazol-5-yl)cyclopentyl(1-methylcyclopropyl)carbamate] | 48 | 1.3 |
